From PubChem BioAssay (NCI)
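48-hour exposure; five concentrations; linearly interpolated endpoints. Abbreviation: GI50, concentration required for 50% inhibition of growth. Definition used: TGI = concentration required for complete inhibition of growth.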

What was measured:
Test in all cases: NCI tumour cell line growth inhibition, 48 h
SW-620 colon = test system: SW-620 colon
COLO 205 colon = test system: COLO 205 colon
NCI-H460 lung = test system: NCI-H460 lung
ACHN renal = test system: ACHN renal
SR leukemia = test system: SR leukemia
CAKI-1 renal = test system: CAKI-1 renal
SF-268 CNS = test system: SF-268 CNS
NCI/ADR-RES ovarian = test system: NCI/ADR-RES ovarian
SN12C renal = test system: SN12C renal
K-562 leukemia = test system: K-562 leukemia
HT29 colon = test system: HT29 colon
MCF7 breast = test system: MCF7 breast
OVCAR-4 ovarian = test system: OVCAR-4 ovarian
OVCAR-3 ovarian = test system: OVCAR-3 ovarian
MOLT-4 leukemia = test system: MOLT-4 leukemia
SF-295 CNS = test system: SF-295 CNS
HOP-62 NSCLC = test system: HOP-62 NSCLC
NCI-H522 lung = test system: NCI-H522 lung
LOX IMVI melanoma = test system: LOX IMVI melanoma
EKVX NSCLC = test system: EKVX NSCLC
UACC-62 melanoma = test system: UACC-62 melanoma
DU-145 prostate = test system: DU-145 prostate
OVCAR-8 ovarian = test system: OVCAR-8 ovarian
NCI-H226 lung = test system: NCI-H226 lung
HS 578T breast = test system: HS 578T breast
MDA-MB-435 = test system: MDA-MB-435
HCT-15 colon = test system: HCT-15 colon
OVCAR-5 ovarian = test system: OVCAR-5 ovarian
NCI-H23 lung = test system: NCI-H23 lung
PC-3 prostate = test system: PC-3 prostate
T-47D breast = test system: T-47D breast
U251 CNS = test system: U251 CNS
RPMI-8226 leukemia = test system: RPMI-8226 leukemia
MALME-3M melanoma = test system: MALME-3M melanoma
RXF 393 renal = test system: RXF 393 renal
SNB-19 CNS = test system: SNB-19 CNS
UO-31 renal = test system: UO-31 renal
CCRF-CEM leukemia = test system: CCRF-CEM leukemia
SK-MEL-28 melanoma = test system: SK-MEL-28 melanoma
A549 NSCLC = test system: A549 NSCLC
KM12 colon = test system: KM12 colon
BT-549 breast = test system: BT-549 breast
M14 melanoma = test system: M14 melanoma
SK-MEL-5 melanoma = test system: SK-MEL-5 melanoma
SK-OV-3 ovarian = test system: SK-OV-3 ovarian
786-0 renal = test system: 786-0 renal
TK-10 renal = test system: TK-10 renal
HCT-116 colon = test system: HCT-116 colon

With `Cc1ccc(NC2=C(Cl)C(=O)N(Cc3ccccc3)C2=O)cc1Cl` as the compound, how does the GI50 (SW-620 colon) read?
The GI50 was 5.14 µM.

What about the TGI (SW-620 colon) of the same compound?
The TGI was 16.9 µM.

What about the GI50 (COLO 205 colon) of the same compound?
The GI50 was 7.03 µM.

And the TGI (COLO 205 colon)?
The TGI was 22.1 µM.

What about the GI50 (NCI-H460 lung) of the same compound?
Its GI50 is 6.78 µM.

And the TGI (NCI-H460 lung)?
Its TGI is 23.6 µM.

What about the GI50 (ACHN renal) of the same compound?
Its GI50 is 11.1 µM.

And the TGI (ACHN renal)?
The TGI was 26.6 µM.

What about the GI50 (SR leukemia) of the same compound?
The GI50 was 1.19 µM.

And the TGI (SR leukemia)?
The TGI was 5.75 µM.

And the GI50 (CAKI-1 renal)?
The GI50 was 5.92 µM.

What about the TGI (CAKI-1 renal) of the same compound?
Its TGI is 26 µM.

And the GI50 (SF-268 CNS)?
The GI50 was 3.28 µM.

And the TGI (SF-268 CNS)?
The TGI was 15.1 µM.

And the GI50 (NCI/ADR-RES ovarian)?
The GI50 was 6.11 µM.

And the TGI (NCI/ADR-RES ovarian)?
Its TGI is 20.6 µM.

And the GI50 (SN12C renal)?
The GI50 was 3.4 µM.

What about the TGI (SN12C renal) of the same compound?
Its TGI is 15.8 µM.

And the GI50 (K-562 leukemia)?
Its GI50 is 3.69 µM.

What about the TGI (K-562 leukemia) of the same compound?
Its TGI is 25.8 µM.

What about the GI50 (HT29 colon) of the same compound?
The GI50 was 14.3 µM.

And the TGI (HT29 colon)?
The TGI was 36.6 µM.

And the GI50 (MCF7 breast)?
Its GI50 is 3.3 µM.

What about the TGI (MCF7 breast) of the same compound?
The TGI was 13.7 µM.

What about the GI50 (OVCAR-4 ovarian) of the same compound?
Its GI50 is 10.7 µM.

And the TGI (OVCAR-4 ovarian)?
Its TGI is 26.6 µM.

And the GI50 (OVCAR-3 ovarian)?
The GI50 was 3.82 µM.

And the TGI (OVCAR-3 ovarian)?
The TGI was 15 µM.

What about the GI50 (MOLT-4 leukemia) of the same compound?
The GI50 was 1.71 µM.

And the TGI (MOLT-4 leukemia)?
The TGI was 6.81 µM.

What about the GI50 (SF-295 CNS) of the same compound?
The GI50 was 7.66 µM.

And the TGI (SF-295 CNS)?
Its TGI is 22.5 µM.

What about the GI50 (HOP-62 NSCLC) of the same compound?
Its GI50 is 12.6 µM.

What about the TGI (HOP-62 NSCLC) of the same compound?
Its TGI is 25.2 µM.

What about the GI50 (NCI-H522 lung) of the same compound?
The GI50 was 2.97 µM.

What about the TGI (NCI-H522 lung) of the same compound?
The TGI was 15.4 µM.

What about the GI50 (LOX IMVI melanoma) of the same compound?
Its GI50 is 2.53 µM.

And the TGI (LOX IMVI melanoma)?
Its TGI is 14.2 µM.

And the GI50 (EKVX NSCLC)?
Its GI50 is 14.1 µM.

And the TGI (EKVX NSCLC)?
The TGI was 28.9 µM.

What about the GI50 (UACC-62 melanoma) of the same compound?
The GI50 was 3.85 µM.

And the TGI (UACC-62 melanoma)?
The TGI was 16.8 µM.

And the GI50 (DU-145 prostate)?
The GI50 was 14.4 µM.

What about the TGI (DU-145 prostate) of the same compound?
The TGI was 27.8 µM.

What about the GI50 (OVCAR-8 ovarian) of the same compound?
Its GI50 is 2.32 µM.

And the TGI (OVCAR-8 ovarian)?
Its TGI is 9.93 µM.

What about the GI50 (NCI-H226 lung) of the same compound?
Its GI50 is 0.144 µM.

And the TGI (NCI-H226 lung)?
Its TGI is 3.83 µM.

What about the GI50 (HS 578T breast) of the same compound?
Its GI50 is 10.6 µM.

And the TGI (HS 578T breast)?
The TGI was 33.9 µM.

What about the GI50 (MDA-MB-435) of the same compound?
The GI50 was 5.29 µM.

And the TGI (MDA-MB-435)?
The TGI was 25.7 µM.

And the GI50 (HCT-15 colon)?
The GI50 was 5.4 µM.

What about the TGI (HCT-15 colon) of the same compound?
The TGI was 21.4 µM.

What about the GI50 (OVCAR-5 ovarian) of the same compound?
The GI50 was 15.7 µM.

And the TGI (OVCAR-5 ovarian)?
Its TGI is 43.3 µM.

What about the GI50 (NCI-H23 lung) of the same compound?
The GI50 was 4.13 µM.

What about the TGI (NCI-H23 lung) of the same compound?
Its TGI is 14.6 µM.

And the GI50 (PC-3 prostate)?
Its GI50 is 1.99 µM.

And the TGI (PC-3 prostate)?
The TGI was 8.84 µM.

And the GI50 (T-47D breast)?
Its GI50 is 4.3 µM.

What about the TGI (T-47D breast) of the same compound?
Its TGI is 25.3 µM.

And the GI50 (U251 CNS)?
The GI50 was 3.75 µM.

And the TGI (U251 CNS)?
Its TGI is 15.9 µM.

What about the GI50 (RPMI-8226 leukemia) of the same compound?
The GI50 was 0.454 µM.

And the TGI (RPMI-8226 leukemia)?
Its TGI is 3.36 µM.

What about the GI50 (MALME-3M melanoma) of the same compound?
Its GI50 is 0.598 µM.

What about the TGI (MALME-3M melanoma) of the same compound?
The TGI was 9.14 µM.

And the GI50 (RXF 393 renal)?
The GI50 was 2.33 µM.

What about the TGI (RXF 393 renal) of the same compound?
Its TGI is 10.6 µM.

And the GI50 (SNB-19 CNS)?
The GI50 was 11.2 µM.

What about the TGI (SNB-19 CNS) of the same compound?
The TGI was 34.7 µM.

And the GI50 (UO-31 renal)?
Its GI50 is 3.33 µM.

What about the TGI (UO-31 renal) of the same compound?
The TGI was 15.9 µM.

What about the GI50 (CCRF-CEM leukemia) of the same compound?
Its GI50 is 4.23 µM.

And the TGI (CCRF-CEM leukemia)?
Its TGI is 19.4 µM.

And the GI50 (SK-MEL-28 melanoma)?
Its GI50 is 12.9 µM.

What about the TGI (SK-MEL-28 melanoma) of the same compound?
Its TGI is 29.3 µM.

What about the GI50 (A549 NSCLC) of the same compound?
The GI50 was 5.74 µM.

And the TGI (A549 NSCLC)?
Its TGI is 18.8 µM.

What about the GI50 (KM12 colon) of the same compound?
The GI50 was 13.7 µM.

And the TGI (KM12 colon)?
The TGI was 26.6 µM.

What about the GI50 (BT-549 breast) of the same compound?
The GI50 was 1.68 µM.

What about the TGI (BT-549 breast) of the same compound?
Its TGI is 14.9 µM.

What about the GI50 (M14 melanoma) of the same compound?
The GI50 was 11 µM.

And the TGI (M14 melanoma)?
Its TGI is 22.9 µM.

What about the GI50 (SK-MEL-5 melanoma) of the same compound?
The GI50 was 5.64 µM.

And the TGI (SK-MEL-5 melanoma)?
Its TGI is 19.1 µM.

And the GI50 (SK-OV-3 ovarian)?
Its GI50 is 19.4 µM.

What about the TGI (SK-OV-3 ovarian) of the same compound?
The TGI was greater than 100 µM.

And the GI50 (786-0 renal)?
The GI50 was 6.39 µM.

What about the TGI (786-0 renal) of the same compound?
Its TGI is 21 µM.

What about the GI50 (TK-10 renal) of the same compound?
The GI50 was 9.13 µM.

And the TGI (TK-10 renal)?
The TGI was 24.3 µM.

And the GI50 (HCT-116 colon)?
The GI50 was 3.01 µM.

And the TGI (HCT-116 colon)?
The TGI was 12.5 µM.
